Assay results reported in PubChem BioAssay (NCI).
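At the GI50, growth is halved. TGI is the concentration that stops growth completely.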

Legend:
Assay in all cases: NCI anticancer screen, dose series, 384-well format
HCC-2998 colon = test system: HCC-2998 colon
HL-60(TB) leukemia = test system: HL-60(TB) leukemia
HT29 colon = test system: HT29 colon
KM12 colon = test system: KM12 colon
MCF7 breast = test system: MCF7 breast
MOLT-4 leukemia = test system: MOLT-4 leukemia
NCI-H322M lung = test system: NCI-H322M lung
OVCAR-8 ovarian = test system: OVCAR-8 ovarian
SK-MEL-5 melanoma = test system: SK-MEL-5 melanoma
SNB-75 CNS = test system: SNB-75 CNS
SR leukemia = test system: SR leukemia
SW-620 colon = test system: SW-620 colon
T-47D breast = test system: T-47D breast

| Compound | GI50 (HCC-2998 colon) [µM] | TGI (HCC-2998 colon) [µM] | GI50 (HL-60(TB) leukemia) [µM] | TGI (HL-60(TB) leukemia) [µM] | GI50 (HT29 colon) [µM] | TGI (HT29 colon) [µM] | GI50 (KM12 colon) [µM] | TGI (KM12 colon) [µM] | GI50 (MCF7 breast) [µM] | TGI (MCF7 breast) [µM] | GI50 (MOLT-4 leukemia) [µM] | TGI (MOLT-4 leukemia) [µM] | GI50 (NCI-H322M lung) [µM] | TGI (NCI-H322M lung) [µM] | GI50 (OVCAR-8 ovarian) [µM] | TGI (OVCAR-8 ovarian) [µM] | GI50 (SK-MEL-5 melanoma) [µM] | TGI (SK-MEL-5 melanoma) [µM] | GI50 (SNB-75 CNS) [µM] | TGI (SNB-75 CNS) [µM] | further results |
| --- | --- | --- | --- | --- | --- | --- | --- | --- | --- | --- | --- | --- | --- | --- | --- | --- | --- | --- | --- | --- | --- |
| O=C(CCCCCCC(=O)N/N=C/c1ccc(N(c2ccccc2)c2ccccc2)cc1)NO | 1.84 | 3.87 | 1.28 | 2.56 | 1.8 | 3.45 | 2.63 | 9.17 | 0.297 | 1.72 | 0.471 | 1.51 | 3.11 | 9.54 | 1.5 | 3.88 | 1.63 | 3.1 | 2.82 | 7.8 | GI50 (SR leukemia): 0.144 µM; TGI (SR leukemia): 0.321 µM; GI50 (SW-620 colon): 1.42 µM; TGI (SW-620 colon): 2.79 µM; GI50 (T-47D breast): 0.562 µM; TGI (T-47D breast): 1.6 µM |
| CS(=O)(=O)N1CCN(Cc2cc3nc(-c4cccc5[nH]ncc45)nc(N4CCOCC4)c3s2)CC1 | 0.723 | 14.3 | 0.0463 | 0.593 | 0.744 | 14.7 | 0.888 | > 100 | 0.0582 | 16.3 | 0.0822 | 0.363 | 0.442 | 5.32 | 1.11 | > 100 | 0.795 | 8.53 | 0.102 | 0.533 | GI50 (SR leukemia): 1.53 µM; TGI (SR leukemia): 4.01 µM; GI50 (SW-620 colon): 2.42 µM; TGI (SW-620 colon): > 100 µM; GI50 (T-47D breast): 0.0494 µM; TGI (T-47D breast): 0.341 µM |
